# Results: US8791107B2, “N-substituted oxazinopteridines and oxazinopteridinones” (Takeda Pharmaceutical Company Limited, priority 2011, dated 2014)
# Target: T1, PI3Kδ (Homo sapiens, UniProt O00329)
# T1 construct: The protein is full length and co-expressed with untagged PIK3R1; GST; purchased Invitrogen PV5274
# Experiment: PI3Kδ inhibition, modified PIK3CD Adapta TR-FRET assay
# Assay type: biochemical
# Conditions: recombinant GST-tagged full length PIK3CD co-expressed with PIK3R1 (p85α); 2 μM ATP, 50 μM PIP2; read-out: PI3Kδ Inhibition (pIC50) (converted)
# In short: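 Full-length GST-PIK3CD co-expressed with p85α was run in 50 mM HEPES pH 7.5, 3 mM MgCl2, 1 mM EGTA, 100 mM NaCl, 0.03% CHAPS, 2 mM DTT, 1% DMSO, with 12-point compound titrations. Reactions at room temperature were started with solution containing 2 μM ATP and 50 μM PIP2. ADP was detected by Adapta TR-FRET (620 nm-ratioed).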
# T1 sequence (O00329 whole entry): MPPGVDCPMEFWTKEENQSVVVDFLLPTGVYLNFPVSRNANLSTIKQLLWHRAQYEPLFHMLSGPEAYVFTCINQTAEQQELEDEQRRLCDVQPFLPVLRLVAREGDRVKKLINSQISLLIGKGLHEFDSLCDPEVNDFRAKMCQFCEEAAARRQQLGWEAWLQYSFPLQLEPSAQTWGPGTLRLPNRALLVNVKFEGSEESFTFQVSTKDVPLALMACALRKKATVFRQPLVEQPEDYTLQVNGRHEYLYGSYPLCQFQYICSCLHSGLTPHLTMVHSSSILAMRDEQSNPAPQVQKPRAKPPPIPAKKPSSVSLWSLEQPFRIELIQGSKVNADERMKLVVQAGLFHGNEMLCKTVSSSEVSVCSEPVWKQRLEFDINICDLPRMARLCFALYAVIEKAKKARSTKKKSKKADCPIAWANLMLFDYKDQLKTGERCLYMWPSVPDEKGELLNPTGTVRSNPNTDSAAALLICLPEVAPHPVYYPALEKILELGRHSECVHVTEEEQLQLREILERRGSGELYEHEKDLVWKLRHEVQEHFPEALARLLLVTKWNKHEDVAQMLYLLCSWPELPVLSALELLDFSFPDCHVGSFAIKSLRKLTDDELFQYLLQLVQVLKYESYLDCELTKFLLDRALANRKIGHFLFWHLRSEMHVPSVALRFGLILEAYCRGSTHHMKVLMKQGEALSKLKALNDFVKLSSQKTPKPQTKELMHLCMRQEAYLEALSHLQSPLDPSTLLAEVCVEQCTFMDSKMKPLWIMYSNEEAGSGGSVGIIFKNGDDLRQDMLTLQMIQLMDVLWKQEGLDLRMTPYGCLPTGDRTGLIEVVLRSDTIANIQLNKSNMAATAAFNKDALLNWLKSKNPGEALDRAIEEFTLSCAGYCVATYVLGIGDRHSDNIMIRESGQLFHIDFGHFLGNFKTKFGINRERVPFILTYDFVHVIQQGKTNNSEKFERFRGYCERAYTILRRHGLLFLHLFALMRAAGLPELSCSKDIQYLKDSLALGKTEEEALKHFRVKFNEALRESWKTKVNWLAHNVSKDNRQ
# T1 sequence (P27986 whole entry partner): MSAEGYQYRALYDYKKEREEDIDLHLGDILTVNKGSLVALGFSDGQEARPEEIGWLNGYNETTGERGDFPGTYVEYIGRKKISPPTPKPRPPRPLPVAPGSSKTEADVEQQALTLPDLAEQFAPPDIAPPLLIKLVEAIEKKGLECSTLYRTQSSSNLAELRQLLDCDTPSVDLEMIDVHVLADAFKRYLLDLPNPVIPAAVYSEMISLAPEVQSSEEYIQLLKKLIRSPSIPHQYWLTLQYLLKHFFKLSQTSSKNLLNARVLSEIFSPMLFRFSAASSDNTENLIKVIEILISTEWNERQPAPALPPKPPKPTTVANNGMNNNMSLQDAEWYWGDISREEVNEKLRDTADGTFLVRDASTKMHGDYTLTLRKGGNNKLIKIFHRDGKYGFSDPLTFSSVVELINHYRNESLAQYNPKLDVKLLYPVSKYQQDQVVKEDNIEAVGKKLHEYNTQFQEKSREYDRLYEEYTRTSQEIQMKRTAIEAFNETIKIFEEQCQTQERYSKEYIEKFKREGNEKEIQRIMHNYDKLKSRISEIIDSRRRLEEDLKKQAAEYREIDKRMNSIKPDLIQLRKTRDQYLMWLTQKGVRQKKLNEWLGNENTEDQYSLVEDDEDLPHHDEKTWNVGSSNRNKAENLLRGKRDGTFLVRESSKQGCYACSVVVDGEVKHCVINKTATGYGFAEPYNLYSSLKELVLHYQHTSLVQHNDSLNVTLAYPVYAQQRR
row,IC50,Compound
1,5.01 nM,"CCc1nnc(CN2C[C@@H]3COCCN3c3nc(-c4cccc(CO)c4)ncc32)o1 [Example 172, (R)-(3-(5-((5-ethyl-1,3,4-oxadiazol-2-yl)methyl)-5,6,6a,7,9,10-hexahydro-[1,4]oxazino[3,4-h]pteridin-2-yl)phenyl)methanol]"
2,79.4 nM,"c1ccc(N2CC3COCCN3c3nc(-c4cccc5[nH]ccc45)ncc32)cc1 (stereo not drawn) [Example 181, 2-(1H-indol-4-yl)-5-phenyl-5,6,6a,7,9,10-hexahydro-[1,4]oxazino[3,4-h]pteridine]"
3,79.4 nM,"c1cnc(CN2CC3COCCN3c3nc(-c4cccc5[nH]ccc45)ncc32)nc1 (stereo not drawn) [Example 164, 2-(1H-indol-4-yl)-5-(pyrimidin-2-ylmethyl)-5,6,6a,7,9,10-hexahydro-[1,4]oxazino[3,4-h]pteridine]"
4,25.1 nM,"O=C1C2COCCN2c2nc(-c3cccc4[nH]ccc34)ncc2N1Cc1ccccc1 (stereo not drawn) [Example 145, 5-benzyl-2-(1H-indol-4-yl)-6a,7,9,10-tetrahydro-[1,4]oxazino[3,4-h]pteridin-6(5H)-one]"
5,> 10000 nM,"COc1cccc2c(-c3ncc4c(n3)N3CCOCC3CN4)c[nH]c12 (stereo not drawn) [Example 9, 2-(7-methoxy-1H-indol-3-yl)-5,6,6a,7,9,10-hexahydro-[1,4]oxazino[3,4-h]pteridine]"
6,316 nM,"NC(=O)c1ccc(F)cc1CN1CC2COCCN2c2nc(-c3cccc4[nH]ccc34)ncc21 (stereo not drawn) [Example 75, 2-((2-(1H-indol-4-yl)-6a,7,9,10-tetrahydro-[1,4]oxazino[3,4-h]pteridin-5(6H)-yl)methyl)-4-fluorobenzamide]"
7,2 nM,"CNC(=O)Nc1ccc(-c2ncc3c(n2)N2CCOCC2C(=O)N3Cc2ccc(-n3cncn3)cc2)cc1 (stereo not drawn) [Example 92, 1-(4-(5-(4-(1H-1,2,4-triazol-1-yl)benzyl)-6-oxo-5,6,6a,7,9,10-hexahydro-[1,4]oxazino[3,4-h]pteridin-2-yl)phenyl)-3-methylurea]"
8,398 nM,"CC(C)(C#N)NC(=O)CN1C[C@@H]2COCCN2c2nc(-c3cccc4[nH]ccc34)ncc21 [Example 208, (R)-2-(2-(1H-indol-4-yl)-6a,7,9,10-tetrahydro-[1,4]oxazino[3,4-h]pteridin-5(6H)-yl)-N-(2-cyanopropan-2-yl)acetamide]"
9,3.98 nM,"CNC(=O)Nc1ccc(-c2ncc3c(n2)N2CCOCC2C(=O)N3C2CCc3ccc(OC)cc32)cc1 (stereo not drawn) [Example 148, 1-(4-(5-(6-methoxy-2,3-dihydro-1H-inden-1-yl)-6-oxo-5,6,6a,7,9,10-hexahydro-[1,4]oxazino[3,4-h]pteridin-2-yl)phenyl)-3-methylurea]"
10,2.51 nM,"COC(=O)c1cc(N2C[C@@H]3COCCN3c3nc(-c4cccc5[nH]ccc45)ncc32)cnc1OC [Example 202, (R)-methyl 5-(2-(1H-indol-4-yl)-6a,7,9,10-tetrahydro-[1,4]oxazino[3,4-h]pteridin-5(6H)-yl)-2-methoxynicotinate]"
11,> 10000 nM,"Clc1cccc2c(-c3ncc4c(n3)N3CCOCC3CN4)c[nH]c12 (stereo not drawn) [Example 11, 2-(7-chloro-1H-indol-3-yl)-5,6,6a,7,9,10-hexahydro-[1,4]oxazino[3,4-h]pteridine]"
12,158 nM,"COc1cc(C#N)ccc1CN1CC2COCCN2c2nc(-c3cccc4[nH]ccc34)ncc21 (stereo not drawn) [Example 47, 4-((2-(1H-indol-4-yl)-6a,7,9,10-tetrahydro-[1,4]oxazino[3,4-h]pteridin-5(6H)-yl)methyl)-3-methoxybenzonitrile]"
13,5.01 nM,"c1cc(-c2ncc3c(n2)N2CCOCC2CN3CC2CC2)c2cc[nH]c2c1 (stereo not drawn) [Example 3, 5-(cyclopropylmethyl)-2-(1H-indol-4-yl)-5,6,6a,7,9,10-hexahydro-[1,4]oxazino[3,4-h]pteridine]"
14,794 nM,"CS(=O)(=O)Nc1cccc(-c2ncc3c(n2)N2CCOCC2C(=O)N3Cc2ccc(S(C)(=O)=O)cc2)c1 (stereo not drawn) [Example 117, N-(3-(5-(4-(methylsulfonyl)benzyl)-6-oxo-5,6,6a,7,9,10-hexahydro-[1,4]oxazino[3,4-h]pteridin-2-yl)phenyl)methanesulfonamide]"
15,398 nM,"CCc1cccc(N2C[C@@H]3COCCN3c3nc(-c4cccc5[nH]ccc45)ncc32)c1 [Example 183, (R)-5-(3-ethylphenyl)-2-(1H-indol-4-yl)-5,6,6a,7,9,10-hexahydro-[1,4]oxazino[3,4-h]pteridine]"
16,1000 nM,"C[C@@H](c1ccccc1)N1C(=O)C2COCCN2c2nc(-c3cc[nH]n3)ncc21 (mixture of isomers) [Example 97, 5-((5)-1-phenylethyl)-2-(1H-pyrazol-3-yl)-6a,7,9,10-tetrahydro-[1,4]oxazino[3,4-h]pteridin-6(5H)-one]"
17,6310 nM,"Cc1c[nH]c2c(F)ccc(-c3ncc4c(n3)N3CCOCC3CN4Cc3ccc(S(C)(=O)=O)cc3)c12 (stereo not drawn) [Example 16, 2-(7-fluoro-3-methyl-1H-indol-4-yl)-5-(4-(methylsulfonyl)benzyl)-5,6,6a,7,9,10-hexahydro-[1,4]oxazino[3,4-h]pteridine]"

row,IC50,Compound
1,501 nM,"CC(C)NC(=O)CN1CC2COCCN2c2nc(-c3cccc4[nH]ccc34)ncc21 (stereo not drawn) [Example 42, 2-(2-(1H-indol-4-yl)-6a,7,9,10-tetrahydro-[1,4]oxazino[3,4-h]pteridin-5(6H)-yl)-N-isopropylacetamide]"
2,5010 nM,"O=C(CN1C[C@@H]2COCCN2c2nc(-c3ccccc3CO)ncc21)NCC1CCOCC1 [Example 215, (R)-2-(2-(2-(hydroxymethyl)phenyl)-6a,7,9,10-tetrahydro-[1,4]oxazino[3,4-h]pteridin-5(6H)-yl)-N-((tetrahydro-2H-pyran-4-yl)methyl)acetamide]"
3,5010 nM,"COc1cc(-c2ncc3c(n2)N2CCOCC2CN3)ccn1 (stereo not drawn) [Example 14, 2-(2-methoxypyridin-4-yl)-5,6,6a,7,9,10-hexahydro-[1,4]oxazino[3,4-h]pteridine]"
4,200 nM,"CC(=O)Nc1ccccc1-c1ncc2c(n1)N1CCOCC1C(=O)N2Cc1ccc(S(C)(=O)=O)cc1 (stereo not drawn) [Example 104, N-(2-(5-(4-(methylsulfonyl)benzyl)-6-oxo-5,6,6a,7,9,10-hexahydro-[1,4]oxazino[3,4-h]pteridin-2-yl)phenyl)acetamide]"
5,1000 nM,"CNC(=O)c1cccc(-c2ncc3c(n2)N2CCOCC2C(=O)N3Cc2ccc(S(C)(=O)=O)cc2)c1 (stereo not drawn) [Example 122, N-methyl-3-(5-(4-(methylsulfonyl)benzyl)-6-oxo-5,6,6a,7,9,10-hexahydro-[1,4]oxazino[3,4-h]pteridin-2-yl)benzamide]"
6,15.8 nM,"CC(C)(O)c1ccc(CN2CC3COCCN3c3nc(-c4cccc5[nH]ccc45)ncc32)cc1 (stereo not drawn) [Example 13, 2-(4-((2-(1H-indol-4-yl)-6a,7,9,10-tetrahydro-[1,4]oxazino[3,4-h]pteridin-5(6H)-yl)methyl)phenyl)propan-2-ol]"
7,10 nM,"CS(=O)(=O)c1ccc(CN2CC3COCCN3c3nc(-c4cccc5[nH]ccc45)ncc32)c(Cl)c1 (stereo not drawn) [Example 5, 5-(2-chloro-4-(methylsulfonyl)benzyl)-2-(1H-indol-4-yl)-5,6,6a,7,9,10-hexahydro-[1,4]oxazino[3,4-h]pteridine]"
8,126 nM,"Nc1ccc(-c2ncc3c(n2)N2CCOC[C@H]2CN3CC(=O)NCC2CCOCC2)cn1 [Example 221, (R)-2-(2-(6-aminopyridin-3-yl)-6a,7,9,10-tetrahydro-[1,4]oxazino[3,4-h]pteridin-5(6H)-yl)-N-((tetrahydro-2H-pyran-4-yl)methyl)acetamide]"
9,398 nM,"CS(=O)(=O)c1ccc(CN2C(=O)C3COCCN3c3nc(-c4ccc(C(N)=O)cc4)ncc32)cc1 (stereo not drawn) [Example 107, 4-(5-(4-(methylsulfonyl)benzyl)-6-oxo-5,6,6a,7,9,10-hexahydro-[1,4]oxazino[3,4-h]pteridin-2-yl)benzamide]"
10,2 nM,"CCc1nnc(C(C)N2C[C@@H]3COCCN3c3nc(-c4cccc(CO)c4)ncc32)o1 (stereo partly drawn) [Example 177, (3-((6aR)-5-(1-(5-ethyl-1,3,4-oxadiazol-2-yl)ethyl)-5,6,6a,7,9,10-hexahydro-[1,4]oxazino[3,4-h]pteridin-2-yl)phenyl)methanol]"
11,12.6 nM,"CNC(=O)Nc1ccc(-c2ncc3c(n2)N2CCOCC2C(=O)N3[C@@H](C)c2ccc(Cl)cc2)cc1 (single isomer, unassigned) [Example 85]"
12,6.31 nM,"O=C(O)CCCN1C[C@@H]2COCCN2c2nc(-c3cccc4[nH]ccc34)ncc21 [Example 196, (R)-4-(2-(1H-indol-4-yl)-6a,7,9,10-tetrahydro-[1,4]oxazino[3,4-h]pteridin-5(6H)-yl)butanoic acid]"
13,31.6 nM,"CC(=O)Nc1ccc(-c2ncc3c(n2)N2CCOCC2C(=O)N3Cc2ccc(S(C)(=O)=O)cc2)cc1 (stereo not drawn) [Example 112, N-(4-(5-(4-(methylsulfonyl)benzyl)-6-oxo-5,6,6a,7,9,10-hexahydro-[1,4]oxazino[3,4-h]pteridin-2-yl)phenyl)acetamide]"
14,316 nM,"CC(C)N(C)C(=O)CN1CC2COCCN2c2nc(-c3cccc4[nH]ccc34)ncc21 (stereo not drawn) [Example 44, 2-(2-(1H-indol-4-yl)-6a,7,9,10-tetrahydro-[1,4]oxazino[3,4-h]pteridin-5(6H)-yl)-N-isopropyl-N-methylacetamide]"
15,3980 nM,"CS(=O)(=O)c1ccc(CN2C(=O)C3COCCN3c3nc(-c4ccc5cc[nH]c5c4)ncc32)cc1 (stereo not drawn) [Example 100, 2-(1H-indol-6-yl)-5-(4-(methylsulfonyl)benzyl)-6a,7,9,10-tetrahydro-[1,4]oxazino[3,4-h]pteridin-6(5H)-one]"
16,7.94 nM,"O=C(CN1C[C@@H]2COCCN2c2nc(-c3cncc4[nH]ccc34)ncc21)NCC1CCOCC1 [Example 174, (R)-2-(2-(1H-pyrrolo[2,3-c]pyridin-4-yl)-6a,7,9,10-tetrahydro-[1,4]oxazino[3,4-h]pteridin-5(6H)-yl)-N-((tetrahydro-2H-pyran-4-yl)methyl)acetamide]"
